For one assay, the system named is BV-2 cells. The assay can be described thus: RT-PCR for CXCL10 and IFNβ transcripts in BV-2 cells. In kind it is cell-based, mouse. The following applies: for induction of CXCL10 mRNA / induction of IFNβ transcript: 200 μM; for induction of IFNβ transcript: microglia (BV-2, primary); for induction of CXCL10 mRNA on neutralization of IFNβ with an antibody: 200 μM with anti-IFNβ antibody, 4 hours. Here is the method: (§1) BV-2 mouse microglia cells were grown in DMEM+10% FBS and THP-1 human monocyte cells were grown in RPMI-40+10% FBS+0.05 mM β-mercaptoethanol at 37° C., 5% CO2. Adherent cells were split using 1×TrypLE (Gibco). For cellular assays, cells were treated with the following concentrations of drugs as indicated in the DMEM without serum: 100-200 μM ganciclovir, 10 ng/ml IFNγ (R&D systems), 100 ng/ml LPS (Sigma-Aldrich), 1-10 μM Fludarabine (Selleckchem), 1 μM Ruxolitinib (Selleckchem), 1 μM TG-101348 (Selleckchem), 1 μM Amlexanox (Tocris bioscience) unless otherwise noted. All experiments were run in triplicates and replicated at least 3 times with cell lines and at least twice with primary microglia. Average data are shown for cell lines and representative data are shown for primary cells. Secreted signaling proteins were measured in supernatants from cultured cells stimulated with GCV and conditioned for 24 hours in the absence of serum using two independent Luminex arrays (Human Immune Monitoring Center, Stanford and Eve technologies, Canada). Nitrite assay was performed on conditioned culture supernatants of cells stimulated with drugs for 24 hours using the Griess Reagent System (Promega) according to manufacturer's instructions. To assess cellular viability, cell confluence was measured using an automated microscope (Cellavista; Roche).
(§2) RNA was isolated from cells using RNeasy mini kit from Qiagen. DNased RNA was converted to cDNA using SuperScript III reverse transcriptase kit (Life technologies). The cDNA was used to quantify specific targets using SYBR green in Roche Lightcycler 480. ΔΔCt values normalized against the experimental control to determine fold change in mRNA for each sample compared to untreated or vehicle treated control. β-actin or Ubc or both were used as housekeeping genes. Primer sequences were obtained from PrimerBank. Fold change is shown compared to the vehicle treated or untreated cells, unless otherwise noted.

Assay [1] concerns IFNγ/LPS stimulated BV-2 microglia. The assay can be described thus: Nitrite assay (Griess) on culture supernatants. Type of assay: cell-based, mouse. The following applies: 24 hours. The protocol:
as §1

For assay [2], the system named is BV-2 and primary microglia stimulated with IFNγ and LPS. The assay is described as follows: RT-PCR of inflammatory transcripts in IFNγ/LPS stimulated microglia. Type of assay: cell-based, mouse. The settings on record: IFNγ/LPS stimulated BV-2 microglia, 200 μM, 24 hours. The protocol:
BV-2 mouse microglia cells were grown in DMEM+10% FBS and THP-1 human monocyte cells were grown in RPMI-40+10% FBS+0.05 mM β-mercaptoethanol at 37° C., 5% CO2. Adherent cells were split using 1×TrypLE (Gibco). For cellular assays, cells were treated with the following concentrations of drugs as indicated in the DMEM without serum: 100-200 μM ganciclovir, 10 ng/ml IFNγ (R&D systems), 100 ng/ml LPS (Sigma-Aldrich), 1-10 μM Fludarabine (Selleckchem), 1 μM Ruxolitinib (Selleckchem), 1 μM TG-101348 (Selleckchem), 1 μM Amlexanox (Tocris bioscience) unless otherwise noted. All experiments were run in triplicates and replicated at least 3 times with cell lines and at least twice with primary microglia. Average data are shown for cell lines and representative data are shown for primary cells. Secreted signaling proteins were measured in supernatants from cultured cells stimulated with GCV and conditioned for 24 hours in the absence of serum using two independent Luminex arrays (Human Immune Monitoring Center, Stanford and Eve technologies, Canada). Nitrite assay was performed on conditioned culture supernatants of cells stimulated with drugs for 24 hours using the Griess Reagent System (Promega) according to manufacturer's instructions. To assess cellular viability, cell confluence was measured using an automated microscope (Cellavista; Roche). Mice were housed and bred according to the Institutional Animal Care and Use Committee guidelines. Primary microglia and astrocytes were isolated from P0-P3 C57BL/6 mouse pups. Cortices from pups were isolated, meninges removed and tissue was dissociated using a 25-gauge needle. Two cortices were plated on each poly-L-lysine coated T-75 flasks in DMEM/F12+10% FBS+1% penicillin/streptomycin. Microglia and astrocyte co-cultures were maintained for 3 weeks, after which microglia were isolated using CD11b magnetic beads (Miltenyi Biotec) according to the manufacturer's instructions. Isolated microglia were allowed to recover for 1-2 days and processed for cellular assays described above. RNA was isolated from cells using RNeasy mini kit from Qiagen. […] was converted to cDNA using SuperScript III reverse transcriptase kit (Life technologies). The cDNA was used to quantify specific targets using SYBR green in Roche Lightcycler 480. ΔΔCt values normalized against the experimental control to determine fold change in mRNA for each sample compared to untreated or vehicle treated control. β-actin or Ubc or both were used as housekeeping genes. Primer sequences were obtained from PrimerBank. Fold change is shown compared to the vehicle treated or untreated cells, unless otherwise noted.

A further assay relates to primary microglia. The assay is described as follows: RT-PCR for CXCL10 and IFNβ transcripts in primary microglia (wildtype, tk KO, STING^gt/gt). In kind it is cell-based, mouse. The following applies: 200 μM, 6 hours; for CXCL10 mRNA in microglia from tk1 knockout mice: adult tk1 knockout primary microglia; for induction of CXCL10 mRNA in STING^gt/gt primary microglia / induction of IFNβ mRNA in STING^gt/gt primary microglia: primary microglia lacking functional STING. The protocol: Mice were housed and bred according to the Institutional Animal Care and Use Committee guidelines. Primary microglia and astrocytes were isolated from P0-P3 C57BL/6 mouse pups. Cortices from pups were isolated, meninges removed and tissue was dissociated using a 25-gauge needle. Two cortices were plated on each poly-L-lysine coated T-75 flasks in DMEM/F12+10% FBS+1% penicillin/streptomycin. Microglia and astrocyte co-cultures were maintained for 3 weeks, after which microglia were isolated using CD11b magnetic beads (Miltenyi Biotec) according to the manufacturer's instructions. Isolated microglia were allowed to recover for 1-2 days and processed for cellular assays described above.
For tk KO experiments only, microglia were isolated from adult mouse brains using the neural dissociation kit (Miltenyi Biotec) according to manufacturer's protocol followed by CD11b magnetic bead enrichment. Isolated cells were cultured for 3-4 days before the experiment.
as §2

In a further assay the test system is BV-2 microglia. The assay is described as follows: siRNA knockdown (STING, IRF3, Stat1, Jak2), then RT-PCR for CXCL10. The settings on record: for CXCL10 or IFNβ mRNA expression after siRNA knockdown of Stat1 and Jak2 or lack of Stat1: BV-2 cells (siRNA) or Stat1 knockout primary microglia, 200 μM. In kind it is cell-based, mouse. Here is the method: Smartpool siRNAs against mouse targets were bought from Dharmacon and transfected in microglia cells using Viromer Blue from Lipocalyx at a concentration of 50 nM according to manufacturer's instructions. Drugs were added cells after 24 hours of transfection and assays done 24 hours after addition of drugs.
as §2

The subject of assay [3] is THP-1 human monocyte cells. The assay can be described thus: RT-PCR for CXCL10 in THP-1 cells. Type of assay: cell-based. The following applies: 200 μM, 8-24 hours. Here is the method:
as §1, with “Roche). […]” for “Roche).”

The mark [4] stands for this setting: BV-2 microglia, siRNA 24 hours, then 200 μM for 24 hours.

This is an account of results in US9809597B2, “Ganciclovir derivatives for modulating innate and adaptive immunity and for use in immunotherapy” (The Board of Trustees of the Leland Stanford Junior …, priority 2015, dated 2017).

Structures are written as SMILES.

In the case of `Nc1ccn(C[C@@H](CO)OCP(=O)(O)O)c(=O)n1` [Cidofovir], the “induction of CXCL10 mRNA” value with BV-2 cells (BV-2 cells, 24 hours) is “failed to induce”.
In the case of `Cc1cnc(Nc2ccc(OCCN3CCCC3)cc2)nc1Nc1cccc(S(=O)(=O)NC(C)(C)C)c1` [TG101348], the “inhibition of CXCL10 production in response to GCV and diGCV” value in the assay with BV-2 cells (BV-2 cells, 24 hours, 10 μM Fludarabine or 1 μM Jak inhibitor with 200 μM GCV or diGCV) is on record as “strongly inhibited”. Besides, the “inhibition of CXCL10 production in response to cGAMP” value in the assay with BV-2 cells (BV-2 cells, 24 hours, 10 μM Fludarabine or 1 μM Jak inhibitor with 200 μM cGAMP) is “somewhat less pronounced”.
On to `Nc1nc2c(ncn2[C@@H]2O[C@@H]3COP(=O)(O)O[C@H]4[C@@H](O)[C@H](n5cnc6c(=O)[nH]c(N)nc65)O[C@@H]4COP(=O)(O)O[C@H]3[C@H]2O)c(=O)[nH]1` [c-diGMP], for which the “induction of CXCL10 mRNA” value with BV-2 cells (BV-2 cells, 24 hours) is “strongly induced”. Also, in the assay on BV-2 cells, the “induction of IFNβ transcript” value is reported as “strongly induced”.
For the compound `NC(=O)c1ncn([C@@H]2O[C@H](CO)[C@@H](O)[C@H]2O)n1` [Ribavirin], the “induction of CXCL10 mRNA” value with BV-2 cells (BV-2 cells, 24 hours) is “failed to induce”.
As for `NC1=Nc2c(ncn2COC(CO)CO)C(OCCOCCOCCOCCOc2nc(N)nc3c2ncn3COC(CO)CO)N1` (centres unmarked) [diGCV, 2-({2-Amino-6-[2-(2-{2-[2-(2-amino-9-{[2-hydroxy-1-(hydroxymethyl)ethoxy]methyl}-9H-purin-6-yloxy)ethoxy]ethoxy}ethoxy)ethoxy]-6,9-dihydro-1H-purin-9-yl}methoxy)-1,3-propanediol], the “microglial nitric oxide production (nitrite assay)” value in assay [1] is listed as “potently reduced”. The “inflammatory markers (transcripts)” value in assay [2] is given as “potently reduced”. In the assay on primary microglia, the “CXCL10 mRNA in microglia from tk1 knockout mice” value is reported as “triggered CXCL10 independent of endogenous tk1”, the “induction of CXCL10 mRNA in STING^gt/gt primary microglia” value is reported as “failed to induce” and the “induction of IFNβ mRNA in STING^gt/gt primary microglia” value is reported as “failed to induce”. For the same compound, in the assay on BV-2 microglia, the “CXCL10 or IFNβ mRNA expression after siRNA knockdown of Stat1 and Jak2 or lack of Stat1” value (from here on “CXCL10 or IFNβ mRNA expression”) is “significantly reduced”. Further, in the assay on BV-2 microglia (setting [4]), the “capacity to induce CXCL10 after siRNA knock down of STING” value is “largely abrogated” and the “potential to induce CXCL10 mRNA after siRNA knockdown of IRF3” value is given as “inhibited”. For the same compound, the “induction of CXCL10 mRNA on neutralization of IFNβ with an antibody” value (“induction of CXCL10 mRNA … with an antibody” for short) with BV-2 cells (BV-2 cells) is “partly reduced”. Further, in the assay on BV-2 cells (BV-2 cells, 24 hours), the “induction of CXCL10 mRNA” value is recorded as “increased potency”.
As for `CC(C)c1ccc2oc3nc(N)c(C(=O)O)cc3c(=O)c2c1` [Amlexanox], in the assay with BV-2 cells (BV-2 cells, 1 μM Amlexanox with 200 μM GCV or diGCV, 24 hours), the “inhibition of CXCL10 mRNA induction by GCV and diGCV (Tbk1 inhibition)” value is listed as “inhibited”.
On to `Nc1nc2c(ncn2COCCO)c(=O)[nH]1` [Acyclovir], for which, in the assay on BV-2 cells (BV-2 cells, 24 hours), the “induction of CXCL10 mRNA” value is reported as “failed to induce”.
In the case of `NC1=Nc2c(ncn2COC(CO)CO)C(OCCCSSCCCOC2NC(N)=Nc3c2ncn3COC(CO)CO)N1` (centres unmarked) [thiol-GCV, 2-[(2-Amino-6-{3-[3-(2-amino-9-{[2-hydroxy-1-(hydroxymethyl)ethoxy]methyl}-6,9-dihydro-1H-purin-6-yloxy)propyldithio]propoxy}-6,9-dihydro-1H-purin-9-yl)methoxy]-1,3-propanediol], the “induction of CXCL10 mRNA” value in the assay on BV-2 cells (BV-2 cells, 24 hours) is “increased potency”.
For `NC1=Nc2c(ncn2COC(CO)CO)C(OCCOCCOCCOCCO)N1` (centres unmarked) [monoGCV, 2-{[2-Amino-6-(2-{2-[2-(2-hydroxyethoxy)ethoxy]ethoxy}ethoxy)-6,9-dihydro-1H-purin-9-yl]methoxy}-1,3-propanediol], the “microglial nitric oxide production (nitrite assay)” value in assay [1] is listed as “potently reduced”. In addition, the “inflammatory markers (transcripts)” value in assay [2] is “potently reduced”. Further, in the assay on primary microglia, the “CXCL10 mRNA in microglia from tk1 knockout mice” value is given as “triggered CXCL10 independent of endogenous tk1”, the “induction of CXCL10 mRNA in STING^gt/gt primary microglia” value is reported as “failed to induce” and the “induction of IFNβ mRNA in STING^gt/gt primary microglia” value was “failed to induce”. Besides, the “CXCL10 or IFNβ mRNA expression” value with BV-2 microglia is reported as “significantly reduced”. In the assay with BV-2 cells (BV-2 cells), the “induction of CXCL10 mRNA … with an antibody” value is given as “partly reduced”.
Turning to `Nc1nc2nc[nH]c2c(=O)[nH]1` [guanine], the “induction of CXCL10 mRNA” value in the assay with BV-2 cells (BV-2 cells, 24 hours) is given as “failed to induce”.
For the compound `Cc1ccc2c(=O)c3cccc(CC(=O)O)c3oc2c1C` [DMXAA], the “induction of CXCL10 mRNA in human monocyte cell line” value in assay [3] is given as “did not”. For the same compound, in the assay on BV-2 cells (BV-2 cells, 24 hours), the “induction of CXCL10 mRNA” value is listed as “strongly induced”. Moreover, the “induction of IFNβ transcript” value in the assay with BV-2 cells is listed as “strongly induced”.
For `Nc1nc2c(ncn2CCC(CO)CO)c(=O)[nH]1` [Penciclovir], the “induction of CXCL10 mRNA” value in the assay on BV-2 cells (BV-2 cells, 24 hours) is “failed to induce”.
Same read-out and setting: in the case of `Nc1nc2c(ncn2[C@@H]2O[C@H](CO)[C@@H](O)[C@H]2O)c(=O)[nH]1` [guanosine] it was “failed to induce”; in that of `O=C(O)P(=O)(O)O` [Foscarnet], “failed to induce”.
Turning to `Nc1nc2c(ncn2[C@@H]2O[C@@H]3COP(=O)(O)O[C@H]4[C@@H](O)[C@H](n5cnc6c(N)ncnc65)O[C@@H]4COP(=O)(O)O[C@@H]2[C@@H]3O)c(=O)[nH]1` [cGAMP, cyclic-GAMP], the “CXCL10 or IFNβ mRNA expression” value with BV-2 microglia was “significantly reduced”. In addition, the “induction of CXCL10 mRNA … with an antibody” value in the assay with BV-2 cells (BV-2 cells) was “partly reduced”. The “induction of CXCL10 mRNA” value in the assay with BV-2 cells (BV-2 cells, 24 hours) was “strongly induced”. Also, in the assay on BV-2 cells, the “induction of IFNβ transcript” value is on record as “strongly induced”.
With `Nc1ncnc2c1ncn2[C@@H]1O[C@H](CO)[C@@H](O)[C@@H]1O` [Vidarabine], in the assay with BV-2 cells (BV-2 cells, 24 hours), the “induction of CXCL10 mRNA” value is “failed to induce”.
